These results are taken from US8748484B2, “Organometallic anti-cancer complexes” (Research Foundation of The City University of New York, priority 2011, dated 2014).

Experiment in all cases: Antiproliferative activity, viable cell count (trypan blue) after 96 hours
Common to all, as to type: cell-based, human

The test system of one test is DU145. The conditions noted are these: for IC50: DU145, Prostate, 96 hours, 50% growth inhibition vs DMSO. The protocol:
(§1) The antiproliferative activity of compounds 1-4 was determined in the seven types of human cancer cell lines K562 (Chronic Myelogenous Leukemia, CML), HT-29 (colon), and HL-60 (Acute Myloid Leukemia, AML), DU-145 (prostate), MCF-7 (breast), and GRANTA-519 (Mantle Cell Leukemia, MCL), and NSCL (non small cell lung carcinoma) and compared with cisplatin.
(§2) Human cancer cells were plated in twelve-well dishes at a cell density of 2.5×10^4 cells/ml/well. The cells were treated, in duplicate, 24 hours later with increasing concentrations of each compound or cisplatin from Sigma (Table 3). The total number of viable cells was determined after 96 hours later by cell counting by hemacytometer and trypan blue staining. The percentage of viable cells remaining was calculated as follows: number of viable cells (compound treated)/number of viable cells (DMSO treated)*100. Compound 1 dose response assay plot (FIG. 3) is the average percent viable cells of the treated compared to the vehicle (DMSO) treated cells. DU-145, MCF-7, HT-29, H460 cells were grown in DMEM and K562, HL-60, Granata-519 cells were grown in RPMI medium both supplemented with 10% FBS (cell Generation) and 1 unit penicillin. Cells were routinely grown and treated at 37° C. under 90% humidity. The IC50 (50% growth inhibition as compared to DMSO treated control) values in micromoles were determined by extrapolation from the dose response curves. Dose response curves were generated by plotting the percentage of cells at each concentration versus concentration tested. Compound 1 was chosen to produce more detailed growth curves based on overall highest activity profile. Similarly, cells were treated at increasing concentrations of cisplatin and detailed growth curves were generated (FIG. 4). Thus the activity of compound 1 was compared to cisplatin.

For the next test, the system named is H460. Conditions: for IC50: H460, NSCLC, 96 hours, 50% growth inhibition vs DMSO, Compound 4 values above 25 μM are estimates from the plot 1-25 μM. The protocol: as §1, §2
In another test the test system is HL-60. Conditions: for IC50: HL-60, AML, 96 hours, 50% growth inhibition vs DMSO. The method, then:
as §1, §2

A further test deals with HT-29. The conditions noted are these: for IC50: HT-29, Colon, 96 hours, 50% growth inhibition vs DMSO, Compound 4 values above 25 μM are estimates from the plot 1-25 μM. The protocol:
as §1, §2

In another test the test system is K562. Conditions: for IC50: K562, CML, 96 hours, 50% growth inhibition vs DMSO, Compound 4 values above 25 μM are estimates from the plot 1-25 μM. The method, then:
as §1, §2

The subject of another test is MCF-7. Conditions: for IC50: MCF-7, Breast, 96 hours, 50% growth inhibition vs DMSO, Compound 4 values above 25 μM are estimates from the plot 1-25 μM. The method, then: as §1, §2
In the next test the test system is GRANTA-519. Conditions: for IC50: GRANTA-519, MCL, 96 hours, 50% growth inhibition vs DMSO. The protocol: as §1, §2

Regarding `CC1=C2[O][Ru-]3(=[C]=O)(=[C]=O)([O+]=C2C=CO1)[Ru](=[C]=O)(=[C]=O)(=[C]=O)([P](c1ccccc1)(c1ccccc1)c1ccccc1)[Ru-]31(=[C]=O)(=[C]=O)[O]C2=C(C)OC=CC2=[O+]1` [Cmpd 2, [Ru3(CO)7(C12H10O6)(PPh3)]], the IC50 was 2500 nM in the test with DU145; 5000 nM in the test on H460; 750 nM in the test with HL-60; 5000 nM in the test on HT-29; 2500 nM in the test with K562; 2500 nM in the test on MCF-7.

Turning to [Ru3(CO)6(C12H10O6)(dppm)] [Cmpd 3], the IC50 was 25000 nM in the test with DU145; 70000 nM in the test on H460; 25000 nM in the test on HL-60; over 100000 nM in the test on HT-29; 30000 nM in the test on K562; 75000 nM in the test with MCF-7.

As for `N.N.[Cl][Pt][Cl]` [Cisplatin, reference compound], the IC50 with DU145 was 1000 nM; in the test with GRANTA-519, 250 nM; with H460 it was 750 nM; in the test on HL-60 it was 750 nM; with HT-29, 3000 nM; in the test with K562 it was 1500 nM. Moreover, in the test on MCF-7, the IC50 was 1500 nM.

In the case of `CC1=C2[O][Ru-]3(=[C]=O)(=[C]=O)([O+]=C2C=CO1)[Ru](=[C]=O)(=[C]=O)(=[C]=O)(=[C]=O)[Ru-]31(=[C]=O)(=[C]=O)[O]C2=C(C)OC=CC2=[O+]1` [Cmpd 1, [Ru3(CO)8(C12H10O6)]], the IC50 with DU145 was 500 nM; with GRANTA-519, 75 nM; with H460, 750 nM; in the test with HL-60, 100 nM; in the test with HT-29 it was 500 nM; with K562, 300 nM. In addition, in the test on MCF-7, the IC50 was 400 nM. The “anticancer activity relative to cisplatin” value is 2-3 times with DU145 (DU-145, times more potent than cisplatin); 2-3 times with GRANTA-519 (GRANTA-519, times more potent than cisplatin); “the same as cisplatin” with H460 (NSCL (non small cell lung carcinoma)); 5-7 times with HL-60 (HL-60, times higher than cisplatin); 5-7 times in the test with HT-29 (HT-29, times higher than cisplatin); 5-7 times in the test on K562 (K562, times higher than cisplatin). Further, the “anticancer activity relative to cisplatin” value in the test on MCF-7 (MCF-7, times more potent than cisplatin) was 2-3 times.

Consider [Ru3(CO)6(C12H10O6)(dppe)] [Cmpd 4], for which the IC50 in the test on DU145 amounted to 10000 nM.

Broadly, the IC50 is the point on the concentration scale where inhibition reaches its midpoint.
